Consider 23 compounds from US11708348B2, “Protease inhibitors for treatment of coronavirus infections” (The Scripps Research Institute, priority 2021, dated 2023).

One assay has as its system SARS-CoV-2 strain USA-WA1/2020. The experiment in a line: microbe, parasite or virus in culture. The assay is classed as cell-based. The following applies: Severe acute respiratory syndrome coronavirus 2, HeLa-ACE2, 24 h, HeLa-ACE2 cells, SARS-CoV-2 infection, 24 h; bound printed in cell; read-out: EC50, uM (Hela).
As to `CC(C)C[C@H](NC(=O)[C@H](CCCCN)NC(=O)c1ccccc1F)C(=O)N[C@@H](C[C@@H]1CCNC1=O)C(=O)COC(F)(F)F` [Compound 208, N-((S)-6-amino-1-(((S)-4-methyl-1-oxo-1-(((S)-3-oxo-1-((S)-2-oxopyrrolidin-3-yl)-4-(trifluoromethoxy)butan-2-yl)amino)pentan-2-yl)amino)-1-oxohexan-2-yl)-2-fluorobenzamide], the half-maximal effective concentration (EC50) (as a rule, the concentration needed to bring the measured effect to its halfway point) was > 1 µM.

The assay is the same for the next values; noted with them: Severe acute respiratory syndrome coronavirus 2, HeLa-ACE2, 24 h, HeLa-ACE2 cells, SARS-CoV-2 infection, 24 h; cells given as a bound; read-out: EC50, uM (Hela).
Regarding `CC(C)C[C@H](NC(=O)C1CCCNC1=O)C(=O)N[C@@H](C[C@@H]1CCNC1=O)C(=O)COC(F)(F)F` (stereo partly drawn) [Compound 190, N-((S)-4-methyl-1-oxo-1-(((S)-3-oxo-1-((S)-2-oxopyrrolidin-3-yl)-4-(trifluoromethoxy)butan-2-yl)amino)pentan-2-yl)-2-oxopiperidine-3-carboxamide], the half-maximal effective concentration (EC50) was > 1 µM.

The same assay, now with this note: Severe acute respiratory syndrome coronavirus 2, HeLa-ACE2, 24 h, HeLa-ACE2 cells, SARS-CoV-2 infection, 24 h; class symbols; read-out: EC50, uM (Hela).
Regarding `CC(C)C[C@H](NC(=O)C(=O)NC12CC(C1)C2)C(=O)N[C@@H](C[C@@H]1CCNC1=O)C(=O)COC(F)(F)F` [Compound 191, N1-(bicyclo[1.1.1]-pentan-1-yl)-N2-((S)-4-methyl-1-oxo-1-(((S)-3-oxo-1-((S)-2-oxopyrrolidin-3-yl)-4-(trifluoromethoxy)butan-2-yl)amino)pentan-2-yl)oxalamide], the half-maximal effective concentration (EC50) is < 0.05 µM. On the same count and under the same terms, the same measure for `O=C(N[C@@H](CC1CC1)C(=O)N[C@@H](C[C@@H]1CCNC1=O)C(=O)COC(F)(F)F)c1cc(-c2ccccc2)n[nH]1` [Compound 192, N-((S)-3-cyclopropyl-1-oxo-1-(((S)-3-oxo-1-((S)-2-oxopyrrolidin-3-yl)-4-(trifluoromethoxy)butan-2-yl)amino)propan-2-yl)-3-phenyl-1H-pyrazole-5-carboxamide]: 0.05 to 0.2 µM. Still for that read-out and setting: then `COCC(C)(C)NC(=O)C(=O)N[C@@H](CC(C)C)C(=O)N[C@@H](C[C@@H]1CCNC1=O)C(=O)COC(F)(F)F` [Compound 193, N1-(1-methoxy-2-methylpropan-2-yl)-N2-((S)-4-methyl-1-oxo-1-(((S)-3-oxo-1-((S)-2-oxopyrrolidin-3-yl)-4-(trifluoromethoxy)butan-2-yl)amino)pentan-2-yl)oxalamide], with < 0.05 µM; and `CC(C)C[C@H](NC(=O)c1cc2cccnc2[nH]1)C(=O)N[C@@H](C[C@@H]1CCNC1=O)C(=O)COC(F)(F)F` [Compound 194, N-((S)-4-methyl-1-oxo-1-(((S)-3-oxo-1-((S)-2-oxopyrrolidin-3-yl)-4-(trifluoromethoxy)butan-2-yl)amino)pentan-2-yl)-1H-pyrrolo[2,3-b]pyridine-2-carboxamide], with < 0.05 µM.

As for `CC(C)C[C@H](NC(=O)C(=O)N1CCCc2ccccc21)C(=O)N[C@@H](CC1CCNC1=O)C(=O)COC(F)(F)F` (stereo partly drawn) [Compound 196, (2S)-2-(2-(3,4-dihydroquinolin-1(2H)-yl)-2-oxoacetamido)-4-methyl-N-((2S)-3-oxo-1-(2-oxopyrrolidin-3-yl)-4-(trifluoromethoxy)butan-2-yl)pentanamide], the EC50 is < 0.05 µM.

For `CC(C)C[C@H](NC(=O)C(=O)Nc1ccccc1F)c1cn([C@@H](C[C@@H]2CCNC2=O)C(=O)COc2c(F)c(F)cc(F)c2F)nn1` [Compound 197, N1-(2-fluorophenyl)-N2-((S)-3-methyl-1-(1-((S)-3-oxo-1-((S)-2-oxopyrrolidin-3-yl)-4-(2,3,5,6-tetrafluorophenoxy)butan-2-yl)-1H-1,2,3-triazol-4-yl)butyl)oxalamide], the EC50 was in the range of 0.5 to 1 µM.

On to `COc1cccc2[nH]c(C(=O)N[C@@H](CC(C)C)C(=O)N[C@@H](C[C@@H]3CCNC3=O)C(=O)COC(F)F)cc12` [Compound 198, N—((S)-1-(((S)-4-(difluoromethoxy)-3-oxo-1-((S)-2-oxopyrrolidin-3-yl)butan-2-yl)amino)-4-methyl-1-oxopentan-2-yl)-4-methoxy-1H-indole-2-carboxamide], for which the concentration giving a half-maximal response (EC50) lay within 0.2 to 0.5 µM. The same measure, in the same setting: then `CC(C)C[C@H](NC(=O)OCc1cccc(Cl)c1)C(=O)N[C@@H](C[C@@H]1CCNC1=O)C(=O)COC(F)(F)F` [Compound 199, 3-chlorobenzyl ((S)-4-methyl-1-oxo-1-(((S)-3-oxo-1-((S)-2-oxopyrrolidin-3-yl)-4-(trifluoromethoxy)butan-2-yl)amino)pentan-2-yl)carbamate], with < 0.05 µM; and `CC(C)C[C@H](NC(=O)c1cc2cnccc2[nH]1)C(=O)N[C@@H](C[C@@H]1CCNC1=O)C(=O)COC(F)(F)F` [Compound 200, N-((S)-4-methyl-1-oxo-1-(((S)-3-oxo-1-((S)-2-oxopyrrolidin-3-yl)-4-(trifluoromethoxy)butan-2-yl)amino)pentan-2-yl)-1H-pyrrolo[3,2-c]pyridine-2-carboxamide], with 0.2 to 0.5 µM; and `O=C(N[C@@H](CC1CC1)C(=O)N[C@@H](C[C@@H]1CCNC1=O)C(=O)COC(F)(F)F)c1nc2ccccc2o1` [Compound 201, N-((S)-3-cyclopropyl-1-oxo-1-(((S)-3-oxo-1-((S)-2-oxopyrrolidin-3-yl)-4-(trifluoromethoxy)butan-2-yl)amino)propan-2-yl)benzo[d]oxazole-2-carboxamide], with < 0.05 µM. On to `CC(C)C[C@H](NC(=O)c1cn2ccccc2n1)C(=O)N[C@@H](C[C@@H]1CCNC1=O)C(=O)COC(F)(F)F` [Compound 202, N-((S)-4-methyl-1-oxo-1-(((S)-3-oxo-1-((S)-2-oxopyrrolidin-3-yl)-4-(trifluoromethoxy)butan-2-yl)amino)pentan-2-yl)imidazo[1,2-a]pyridine-2-carboxamide], for which the EC50 fell in the range of 0.05 to 0.2 µM. In the case of `CC(C)C[C@H](NC(=O)c1cn2ncccc2n1)C(=O)N[C@@H](C[C@@H]1CCNC1=O)C(=O)COC(F)(F)F` [Compound 203, N-((S)-4-methyl-1-oxo-1-(((S)-3-oxo-1-((S)-2-oxopyrrolidin-3-yl)-4-(trifluoromethoxy)butan-2-yl)amino)pentan-2-yl)imidazo[1,2-b]pyridazine-2-carboxamide], the EC50 is 0.05 to 0.2 µM.

Consider `CC(C)C[C@H](NC(=O)C1Cc2ccccc2N1)C(=O)N[C@@H](C[C@@H]1CCNC1=O)C(=O)COC(F)(F)F` (stereo partly drawn) [Compound 204, N-((S)-4-methyl-1-oxo-1-(((S)-3-oxo-1-((S)-2-oxopyrrolidin-3-yl)-4-(trifluoromethoxy)butan-2-yl)amino)pentan-2-yl)indoline-2-carboxamide], for which the 50% effective concentration (EC50) is 0.05 to 0.2 µM. Take `CC(C)C[C@H](NC(=O)C(=O)NC1CC(F)(F)C1)C(=O)N[C@@H](C[C@@H]1CCNC1=O)C(=O)COC(F)(F)F` [Compound 205, Nl-(3,3-difluorocyclobutyl)-N2-((S)-4-methyl-1-oxo-1-(((S)-3-oxo-1-((S)-2-oxopyrrolidin-3-yl)-4-(trifluoromethoxy)butan-2-yl)amino)pentan-2-yl)oxalamide]: the EC50 is < 0.05 µM. Same read-out and setting: the same measure for `Cc1ccccc1NC(=O)C(=O)N[C@@H](CC(C)C)C(=O)N[C@@H](C[C@@H]1CCNC1=O)C(=O)COC(F)(F)F` [Compound 206, N^1—((S)-4-methyl-1-oxo-1-(((S)-3-oxo-1-((S)-2-oxopyrrolidin-3-yl)-4-(trifluoromethoxy)butan-2-yl)amino)pentan-2-yl)-N^2-(o-tolyl)oxalamide]: < 0.05 µM; for `CC(C)C[C@H](NC(=O)[C@H](O)Cc1ccccc1)C(=O)N[C@@H](C[C@@H]1CCNC1=O)C(=O)COC(F)(F)F` [Compound 207, (S)-2-((R)-2-hydroxy-3-phenylpropanamido)-4-methyl-N-((S)-3-oxo-1-((S)-2-oxopyrrolidin-3-yl)-4-(trifluoromethoxy)butan-2-yl)pentanamide]: < 0.05 µM; for `CC(C)C[C@H](NC(=O)c1ncc(-c2cccc(F)c2)[nH]1)C(=O)N[C@@H](C[C@@H]1CCNC1=O)C(=O)COC(F)(F)F` [Compound 209, 5-(3-fluorophenyl)-N-((S)-4-methyl-1-oxo-1-(((S)-3-oxo-1-((S)-2-oxopyrrolidin-3-yl)-4-(trifluoromethoxy)butan-2-yl)amino)pentan-2-yl)-1H-imidazole-2-carboxamide]: < 0.05 µM.

With `COc1ccccc1-c1cnc(C(=O)N[C@@H](CC(C)C)C(=O)N[C@@H](C[C@@H]2CCNC2=O)C(=O)COC(F)(F)F)[nH]1` [Compound 210, 5-(2-methoxyphenyl)-N-((S)-4-methyl-1-oxo-1-(((S)-3-oxo-1-((S)-2-oxopyrrolidin-3-yl)-4-(trifluoromethoxy)butan-2-yl)amino)pentan-2-yl)-1H-imidazole-2-carboxamide], the concentration for a half-maximal effect (EC50) is < 0.05 µM. On the same count and under the same terms, then `CC(C)C[C@H](NC(=O)C(=O)NC(C)(C)C(F)(F)F)C(=O)N[C@@H](C[C@@H]1CCNC1=O)C(=O)COC(F)(F)F` [Compound 211, N1-((S)-4-methyl-1-oxo-1-(((S)-3-oxo-1-((S)-2-oxopyrrolidin-3-yl)-4-(trifluoromethoxy)butan-2-yl)amino)pentan-2-yl)-N2-(1,1,1-trifluoro-2-methylpropan-2-yl)oxalamide], with < 0.05 µM; and `CC(C)(NC(=O)C(=O)N[C@@H](CC1CCCCC1)C(=O)N[C@@H](C[C@@H]1CCNC1=O)C(=O)COC(F)(F)F)C(F)(F)F` [Compound 212, N1-((S)-3-cyclohexyl-1-oxo-1-(((S)-3-oxo-1-((S)-2-oxopyrrolidin-3-yl)-4-(trifluoromethoxy)butan-2-yl)amino)propan-2-yl)-N2-(1,1,1-trifluoro-2-methylpropan-2-yl)oxalamide], with < 0.05 µM.

Still in this assay, the particulars now being: Severe acute respiratory syndrome coronavirus 2, HeLa-ACE2, 24 h; read-out: EC50, uM (Hela).
In the case of `COc1cccc2[nH]c(C(=O)N[C@@H](CC(C)C)C(=O)N[C@@H](CC3CCNC3=O)C(=O)COP(=O)(c3ccccc3)c3ccccc3)cc12` (stereo partly drawn) [Compound 195, (3S)-3-((S)-2-(4-methoxy-1H-indole-2-carboxamido)-4-methylpentanamido)-2-oxo-4-(2-oxopyrrolidin-3-yl)butyl diphenylphosphinate], the EC50 lay in the range of 0.05 to 0.2 µM.
